From ChEMBL document CHEMBL5230122, “Natural products and other inhibitors of F1FO ATP synthase” (Eur J Med Chem, 2020)
Converted amounts (≈) assume the structure as drawn. Blank lines part the entries; values can stand above or below the compound they belong to. Numbered stars: 1 amine (or outer) side, 2 acyl side, 3 side chain; on linkers, the order of the positions; unused ones are H or OH. Square brackets hold non-standard residues; d marks the D form. Peptide text beside a SMILES is read from it. * marks the point of attachment. X2 = CCC(=O)C[C@H](O)C[C@@H](C)C[C@H](N[*:1])C(=O)[*:2]; Leu(3R-OH) = CC(C)[C@@H](O)[C@H](N)C(=O)O; NH((S)CH(Me)CH2NMe2) = C[C@@H](CN(C)C)N*; Pro(4S-Me) = C[C@@H]1CN[C@H](C(=O)O)C1; X1 = CC[C@@H](C)/C=C/C(=O)*; Aib = CC(C)(N)C(=O)O; βAla = NCCC(=O)O

Experiments:
[1] = tested on: NCI-H292; assay: Anticancer activity against human NCI-H292 cells assessed as reduction in cell proliferation incubated for 48 hrs by Calcein AM and Pluronic F-127 staining based fluorescence plate reader analysis; assay type: functional; details: NCI-H292, 48 h
[2] = Inhibition of mitochondrial F0F1-ATPase (unknown origin); set-up: species or system Homo sapiens
[3] = tested on: NCI-H460; assay: Antiproliferative activity against human NCI-H460 cells assessed as reduction in cell viability incubated for 48 hrs by MTT assay; assay type: functional, cell-based; details: NCI-H460, 48 h
[4] = tested on: N2a; assay: Antiproliferative activity against mouse Neuro2a cells assessed as reduction in cell viability incubated for 48 hrs by MTT assay; assay type: functional, cell-based
[5] = tested on: HCT-116; assay: Antiproliferative activity against human HCT-116 cells assessed as reduction in cell viability incubated for 72 hrs by MTT assay; assay type: functional, cell-based; details: HCT-116, 72 h
[6] = Antiproliferative activity against human U87G cells assessed as reduction in cell viability incubated for 72 hrs by MTT assay; assay type: functional, cell-based
[7] = tested on: GBM; assay: Anticancer activity against human GBM cells carrying high-throughput GBM sphere assessed as reduction in cell viability incubated for 96 hrs by Cell-Titer-Glo assay; assay type: functional, cell-based
[8] = Inhibition of bovine heart mitochondrial F0F1-ATP synthase assessed as rate of NADH oxidation in presence of NADH for 30 mins by colorimetric assay; assay type: mitochondria, Bos taurus, Mitochondria
[9] = tested on: HeLa; assay: Cytotoxicity against human HeLa cells assessed as reduction in cell viability; assay type: functional, cell-based
[10] = tested on: HL-60; assay: Cytotoxicity against human HL-60 cells assessed as reduction in cell viability; assay type: functional, cell-based
[11] = tested on: HL-60; assay: Anticancer activity against human HL-60 cells assessed as reduction in cell viability incubated for 72 hrs by CCK-8 assay; assay type: functional, cell-based; details: HL-60, 72 h
[12] = tested on: MCF7; assay: Anticancer activity against human MCF7 cells assessed as reduction in cell viability incubated for 72 hrs by CCK-8 assay; assay type: functional, cell-based; details: MCF7, 72 h
[13] = tested on: NCI-H1299; assay: Anticancer activity against human NCI-H1299 cells assessed as reduction in cell viability incubated for 72 hrs by CCK-8 assay; assay type: functional, cell-based; details: NCI-H1299, 72 h
[14] = tested on: LoVo; assay: Anticancer activity against human LoVo cells assessed as reduction in cell viability incubated for 72 hrs by CCK-8 assay; assay type: functional, cell-based
[15] = Inhibition of bovine heart mitochondrial F0F1-ATP synthase F0 domain assessed as reduction in rate of NADH oxidation for 30 mins by colorimetric assay; assay type: mitochondria, Bos taurus, Mitochondria
[16] = tested on: DU-145; assay: Antiproliferative activity against human DU-145 cells assessed as reduction in cell viability incubated for 3 days by rhodanile-blue dye based microplate reader analysis; assay type: functional; details: DU-145, 72 h
[17] = tested on: DU-145; assay: Antiproliferative activity against human DU-145 cells assessed as reduction in cell viability preincubated with PrSCs cells for 2 days followed by co-culture with DU-145 for 3 days by rhodanile-blue dye based microplate reader analysis; assay type: functional
[18] = Acute toxicity in mouse assessed as maximum tolerated dose; details: in vivo
[19] = Cytotoxicity against mouse L929 cells assessed as reduction in cell viability; assay type: toxicity, cell-based

SMILES: COC[C@@H](C[C@H]1O[C@@](O)([C@H](O)[C@@H]2C[C@H](OC)[C@@H](O)CC/C=C(C)/C=C/[C@@H](O[C@@H]3O[C@@H](C)[C@H](OC)[C@@H](O)[C@@H]3O)[C@H](C)/C=C(C)/C=C(C)/C=C(\C)C(=O)O2)[C@H](C)[C@@H](O)[C@H]1C)O[C@H]1C[C@](C)(O)[C@@H](O[C@H]2C[C@@H](OC)[C@H](O)[C@@H](C)O2)[C@H](C)O1
IC50 [1]: 32 nM
IC50 [2]: 700 nM

IC50 [3]: 12 nM
SMILES: CO[C@H]1[C@H](O[C@@H]2C[C@@H]3C/C=C/C(=O)O[C@H](CO)C[C@H](O)[C@@H]4C[C@H](C)[C@H](/C=C\C=C\[C@H](C)C[C@H](C2)O3)O4)O[C@@H](C)[C@H](O)[C@H]1O
IC50 [4]: 44 nM

IC50 [5]: 54 nM
SMILES: CO[C@H]1[C@H](O[C@@H]2C[C@@H]3C[C@H](OCCCC=O)[C@@]4(O)C[C@H](C[C@H](O)[C@@H]5C[C@H](C)[C@H](/C=C\C=C\[C@H](C)C[C@H](C2)O3)O5)OC4=O)O[C@@H](C)[C@H](O)[C@H]1O
IC50 [4]: 84 nM
IC50 [6]: 61 nM

SMILES: CC(C)[C@@H]1CC[C@@H](C)C[C@H]1OC(=O)Cn1c(-c2cccc(C(F)(F)F)c2)[n+](C)c2ccccc21
IC50 [7]: 470 nM

IC50 [8]: 1000 nM
SMILES: CC[C@@H](O)C[C@@H]1O[C@@]2(CC[C@@H]1C)C[C@H]1C[C@H](CC[C@@H](CC)/C=C/C=C/CCC[C@@](C)(O)[C@H](O)C[C@H](O)C[C@@H](O)[C@@H](C)[C@H](O)[C@@H](CC)/C=C/C(=O)O1)O2
IC50 [9]: 8200 nM
IC50 [10]: 5800 nM

IC50 [11]: 610 nM
IC50 [12]: 4980 nM
IC50 [13]: 5080 nM
IC50 [14]: 1830 nM
SMILES: CC[C@H](C)[C@H](NC(=S)[C@H](C)NC(=O)[C@H](C)NC(=S)[C@H](CCSC)NC(=S)[C@@H](NC(=O)C(C)=O)C(C)C)C(=S)N[C@@H](C)C(=O)N[C@H]1C(=O)N[C@@H](C(C)C)C(=O)N[C@@H](C)C(=O)N[C@@H](Cc2ccc(OC)cc2)C(=O)N[C@@H](C(O)c2cn(C)c[n+]2C)C(=O)N/C=C\SC1C (stereo not given in full)

SMILES: CCc1n(CC(=O)O[C@@H]2C[C@H](C)CC[C@H]2C(C)C)c2ccccc2[n+]1C
IC50 [7]: 150 nM

SMILES: CC[C@@H](C)/C=C/C(=O)N1C[C@@H](C)C[C@H]1C(=O)N[C@@H](C)C(=O)N[C@H](C(=O)NC(C)(C)C(=O)N[C@@H](CC(C)C)C(=O)N[C@@H](CC(C)C)C(=O)NC(C)(C)C(=O)NC(C)(C)C(=O)NCCC(=O)N[C@@H](C)CN(C)C)[C@H](O)C(C)C (X1-[Pro(4S-Me)]A[Leu(3R-OH)][Aib]LL[Aib][Aib][βAla]-{NH((S)CH(Me)CH2NMe2)})
IC50 [15]: 2.8 µg/mL (≈ 2.6 µM)
IC50 [16]: > 1 µg/mL
IC50 [17]: 0.21 µg/mL (≈ 0.195 µM)
MTD [18]: 12.5 mg/kg

SMILES: CCC(=O)C[C@H](O)C[C@@H](C)C[C@H](NC(=O)[C@@H]1C[C@H](C)CN1C(=O)/C=C/[C@H](C)CC)C(=O)N[C@H](C(=O)NC(C)(C)C(=O)N[C@@H](CC(C)C)C(=O)N[C@@H](CC(C)C)C(=O)NC(C)(C)C(=O)NC(C)(C)C(=O)NCCC(=O)N[C@@H](C)CN(C)C)[C@H](O)C(C)C (X1-[Pro(4S-Me)][X2][Leu(3R-OH)][Aib]LL[Aib][Aib][βAla]-{NH((S)CH(Me)CH2NMe2)})
IC50 [15]: 2.8 µg/mL (≈ 2.3 µM)
IC50 [16]: > 1 µg/mL
IC50 [17]: 0.045 µg/mL (≈ 0.0369 µM)
MTD [18]: 2.5 mg/kg

SMILES: CCC[C@H](O)[C@@H](C)C(=O)NC/C=C\C[C@@H](C)[C@@H](O)[C@H](C)[C@@H](O)C/C=C\C[C@H](C)[C@H]1Cc2cc(OC)cc(O)c2C(=O)O1
IC50 [19]: > 1 µg/mL
